Measured values taken from US20100297676A1, “METHODS FOR DIAGNOSIS, PROGNOSIS AND METHODS OF TREATMENT” (Nodality, Inc., priority 2009, published 2010).

What was measured:
[1] = tested on: healthy B cells; conditions: B cells from healthy donors; anti-μ 10 μg/ml plus H2O2 […], 10 min
Method: Cryopreserved PBMCs, 23 from CLL patients and 7 from healthy donors, were rapidly thawed in a 37° C. water bath. 1 mL of pre-warmed thawing media (PBS 1% FBS, 2 mM EDTA) was added dropwise to each of the cryovials. Thawed cells were transferred to a tube containing 8 mL thawing media. Tubes were inverted and centrifuged at 200×g for 8 minutes at room temperature. Supernatant was decanted, cell pellets were resuspended in 1 mL RPMI 1640 1% FCS and filtered over 70 um nylon mesh (BD Falcon) to remove cell clumps and debris. 11 mL of additional RPMI 1640 1% FCS was added to the samples to wash. […]
Supernatant was aspirated and each sample was resuspended in 4 mL of PBS. […] The supernatant was decanted and all samples were resuspended at a density of 2.4×10^6 cells/mL, using a volume specific to the number of cells determined from the cell counting procedure. […]
“Daughter” plates designated for treatment with modulators for or apoptosis inducing agents were generated from the “mother” plate with the use of a Liquidator 96-well pipettor (Rainin) Plates designated for treatment with modulators for phospho-readouts received 250 uL (6.0×10^5 cells) of cell suspension per well, and plates designated for treatment with apoptosis inducing agents received 333 uL (8.0×10^5 cells) of cell suspension per well. […]
Antibody cocktails for signaling and apoptosis readouts were prepared in FACS Buffer. […]

[2] = tested on: CLL cells; conditions: in vitro treatment; Buchner 2009, Gobessi 2009; cited from earlier work

| SMILES | effect of H2O2 on anti-μ-mediated BCR signaling [1] | apoptotic response of CLL cells [2] |
| --- | --- | --- |
| OO [H2O2, hydrogen peroxide] | further potentiated | – |
| COc1cc(Nc2ncc(F)c(Nc3ccc4c(n3)NC(=O)C(C)(C)O4)n2)cc(OC)c1OC [R406] | – | mediated an apoptotic response |
